Laboratory results: patent EP4458977A1, “SELF-ASSEMBLING PEPTIDE AMPHIPHILES AS RETROVIRAL TRANSDUCTION ENHANCERS” (Max-Planck-Gesellschaft zur Förderung der Wissenschaften …, priority 2023, dated 2024)
Where “and” joins values, the source holds several entries; their conditions need not be identical. Equal entries are not always repeated. Entries after “also recorded” stand apart in the source; their conditions may differ. Where a SMILES comes first, the peptide text is derived from it. The star is where a group is joined. Palmitoyl = CCCCCCCCCCCCCCCC(=O)*

Assays:
[1] = Thioflavin T (ThT) fluorescence assay; type: physicochemical; set-up: key to ThT: + = ThT active; - = no ThT fluorescence observed
In short: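 ThT fluorescence of peptide fibrils judged against a PBS/10% DMSO control; fibrils scored ThT-active when intensity was at least twice that control.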

CD4+ T cells [2] = conditions: 3 days; 1 µg peptide added to 250,000 cells
Method: Confocal laser scanning microscopy and degradation study with PA1-3 and CD4+ T cells: The degradation of the peptide assemblies on CD4+ T cells was determined by analyzing fluorescence microscopy images. To this end, 4 µL of the preassembled peptide fibrils EF-C, PA1 and PA2 (1 mg mL^-1, 1 d in PBS) were mixed with 4 µL of Proteostat (Enzo Life Science, 1 µL stock in 99 µL PBS) and incubated for 15 min. 2 µL of the stained fibrils were added to 198 µL preactivated and nucleus stained (Hoechst 33342) CD4+ T cells (200 µL, 0.25×10^6 resulting in a final 5 µg mL^-1concentration of the peptide. After incubation for 30 min at 37°C the cells were washed with 3x with PBS and incubated in medium (supplemented RPMI containing IL-15 and 7). Microscopy was conducted on a Zeiss LSM 710 confocal microscope with 20x and 63x objective and laser excitation wavelengths of 405 nm (Hoechst) and 561 nm (Proteostat). The measurements were performed after 30 min and 3 d of incubation at 37°C without any washing step in between. […]
The evaluation of aggregate size and number was conducted by analyzing Proteostat-stained aggregates via the 3D objects counter function of ImageJ 1.53f51 for 6 individual measurements (area 581.25 µm × 581.25 µm) of three individually repeated experiments. […] The degradation of the peptide assemblies on CD4+ T cells was determined by analyzing fluorescence microscopy images. […]

[3] = ATR-FT-IR determination of β-sheet content; type: physicochemical; conditions: peak integration of parallel β-sheet at 1630 cm-1, 2nd derivative of ATR-IR spectra
In short: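 Lyophilized fibril samples measured by diamond ATR-FT-IR, 2 cm^-1 resolution, 64 scans averaged. β-sheet content taken from the second-derivative spectrum as the 1630 cm-1 peak integral relative to the 1650-1700 cm-1 integral.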

Jurkat cells = experiment: γ-retroviral transduction assay (GALV-RV, GFP+ cells); type: cell-based
Method: (§1) γ-Retroviral transduction Assay with Jurkat and CD4+ T cells: The effect of peptide fibrils on retroviral transduction of Jurkat cells was analyzed 3 days post transduction by determining the percentage of GFP + cells by flow cytometry. The assay was conducted according prior art procedures.

HeLa cells [4] = experiment: Confocal laser scanning microscopy and degradation study with PA library and HeLa cells; type: cell-based
In short: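 HeLa cells (20,000/well) got Proteostat-stained PAs (2 µg peptide per 20.000 cells) with Hoechst nuclear stain, 30 min at 37°C, PBS-washed, then held 3 d at 37°C unwashed. Confocal imaging at d0 and d3 counted aggregates >10 µm^2 in 1008 × 1008 µm, three technical replicates. Degradation taken as d3/d0 aggregate number.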

HIV-1 = conditions: relative to virus only;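 further: TZM-bl reporter cells exposed to HIV-1 with peptide fibrils, infection read out as β-galactosidase luminescence, compared with virus alone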
Method: HIV-1 Infection Assay with TZM-bl cells: The effect of peptide fibrils on HIV-1 infection was studied via a luminescence assay for β-galactosidase, which was reported by TZM-bl cells upon infection. The HIV-1 infection assay was conducted in three technical replicates and repeated in three independent experiments unless stated otherwise.

[5] = TEM of peptide assemblies (fibril formation / assembly); type: physicochemical; set-up: key to Fibril Formation: "1" means fibril formation observed; "0" means no fibrils observed; conditions: for Fibril Formation: via TEM
In short: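 Peptides predissolved in DMSO at 10 mg/mL (stock), diluted in PBS to 650 µM or 1 mg/mL final and incubated 1 d at rt (20–25 °C) to form fibrils. Other concentrations obtained by diluting preformed fibrils; assemblies imaged by TEM.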

HeLa cells [6] = experiment: Confocal laser scanning microscopy and degradation study with PA1-3 and HeLa cells; type: cell-based
Method: 4 µL of the preformed peptide fibrils (1 mg mL^-1) were diluted with 4 µL Proteostat (Enzo Life Science, 1 µL stock in 999 µL PBS) and incubated for 10 min and further diluted with medium to receive a final peptide concentration of 20 µg mL^-1. The nucleus of the HeLa cells was stained with Hoechst 33342 (NucBlue™, Thermo Fisher Scientific). The peptide solution was transferred to the HeLa cells and incubated for 30 min at 37°C before washing three times with PBS. […] For the evaluation of aggregate degradation, the samples were further incubated at 37°C for 3 d and analyzed without any additional washing step. […] The number of aggregates were determined by accumulating the number of aggregates larger than 10 µm^2 in an area of 581.25 × 581.25 µm, repeated in three technical triplicates.

[7] = Zeta-potential measurement (dynamic light scattering); type: physicochemical
[8] = as above; type: physicochemical; remark: listed apart in the source
In short: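 Peptide at 1 mg mL-1 stock was diluted tenfold in 1 mM KCl and measured by dynamic light scattering in triplicate. The derived count rate served as a light-scattering and turbidity indicator of microscopic aggregation.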

CD4+ T cells [9] = experiment: γ-retroviral transduction assay (GALV-RV, GFP+ cells); type: cell-based, Human
Method: as §1
Human CD4+ T cells were isolated from a Buffy coat using RosetteSep™ Human CD4+ Enrichment Cocktail ([…] Technologies) according to manufacturer's protocol. Isolated T cells were activated using Dynabeads™ Human T-Activator CD3/CD28 (GibcoTM) according to manufacturer's protocol in presence of 10 ng mL^-1 IL-2 (Miltenyi Biotec) for three days. After 3 days the magnetic Dynabeads were removed using a magnet and T cells were cultured in presence of 9 ng mL^-1 IL-7 (Miltenyi Biotec) and 10 ng mL^-1 IL-15 (Miltenyi Biotec). After 1 day 5×10^5 T cells were transduced with GALV-γ-RV in absence and presence of PA1, PA2, EF-C (0.26, 1.3 and 6.5 µM) and Vectofusin®-1 (10 µg mL^-1; Miltenyi Biotec), or RetroNectin (20 µg mL^-1; Takara Bio). […] After 3 days GFP+ T cells were analyzed by flow cytometry. Viability was determined using LIVE/DEAD™ Fixable Aqua Dead Cell Stain Kit (ThermoFisher Scientific) according to manufacturer's protocol.

[10] = Fluorescence microscopy of ThT-stained fibrils (µm-sized aggregates); type: physicochemical
In short: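 Fibrils (1 mg mL^-1) mixed 1:9 with 50 µM ThT, giving 0.1 mg mL^-1 stained fibrils on glass. Imaged under 10x air objective with excitation 480/40 nm and emission 527/30 nm. Fibrils called distinct when no visible structures appeared in fluorescence or brightfield.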

CCCCCCCCCCCCCCCC(=O)N[C@H](C(=O)N[C@H](C(=O)N[C@H](C(=O)N[C@@H](C)C(=O)N[C@@H](C)C(=O)N[C@@H](C)C(=O)N[C@@H](CCCCN)C(=O)N[C@@H](CCCCN)C(=O)N[C@@H](CCCCN)C(N)=O)C(C)C)C(C)C)C(C)C [PA1] (Palmitoyl-VVVAAAKKK-NH2)
ThT ([1]; ThT fluorescence, 1 mg/mL, PBS): + | N-fold ThT-fluorescence ([1]; relative to PBS control): 278.7 | degradation of aggregates by CD4+ T cells (in words) (CD4+ T cells [2]): almost all small aggregates of PA1 (SEQ ID NO. 4) are degraded by CD4+ T cells | β-sheet content / % [3]: 57% | transduction enhancement (in words) (Jurkat cells): strong transduction enhancement similar to EF-C | Degradability / % (rel. to initial particles > 10 µm^2) (HeLa cells [4]; HeLa cells, 3 d relative to 30 min): 94% | aggregate number decreases / degraded in presence of HeLa cells within 3 days (HeLa cells [4]; d3 relative to d0): 87% and 94% | Infectivity enhancing N fold at 1.3 µM (HIV-1): 10±3 N fold | Assembly without hydrophob residue ([5]; corresponding peptide without hydrophobic moiety): No | Assembly ([5]; peptide amphiphile): Yes | Fibril Formation ([5]; hydrophobic moiety exchange): 1 | Fibril Formation ([5]; linkage chemistry exchange): 1 | degraded over the course of 3 days in the presence of HeLa cells (HeLa cells [6]; 4 µg peptide added to 40,000 cells): 94% | association with cellular membranes (HeLa cells [6]; HeLa cells, 30 min): association with cellular membranes | Zeta-Potential / mV [7]: 22.2 mV | zeta-potential (in words) [8]: positive zeta-potential | Zeta Potential / mV ([8]; 1 mg/mL, PBS): +22.2 ± 0.7 mV | Count Rate / kcps ([8]; derived count rate of scattered light during zeta-potential measurements): 3138.4 kcps | transduction enhancement (in words) (CD4+ T cells [9]): activity in the range of commercially available gold-standard enhancers RetroNectin and Vectofusin-1 | formation of µm-sized aggregates in aqueous medium / PBS (in words) [10]: formation of µm-sized aggregates; also recorded: microscopic clusters of fibrils were formed
